# Assays:
# Assay type in all cases: in vivo, mice
# [1] = system: antinociceptive activity of oxotremorine; test: Antagonism of antinociceptive activity of oxotremorine, hot plate (Table III)
# Method: The antinociceptive activity of oxotremorine [Leslie, J. Pharm. Pharmae., Vol. 2 (1969), p. 248-50] was determined on mice using the hot plate method of Eddy et al [J. Pharmacol. Vol. 107 (1953), p. 385] in the presence and absence of the test product presumed to be antagonistic. The product of Example 1 was administered subcutaneously in aqueous solution at doses of 50 and 100 mg/kg to groups of 10 mice and the products of Examples 2 to 5 were subcutaneously administered in sesame oil solution at doses of 200 and 400 mg/kg to groups of 10 mice. The mice then received a single intraperitoneal injection of 0.5 mg/kg of oxotremorine either 4 hours, 1 day, 2, 3, 4 or 7 days after the test product administration. For each time considerated, the mice were placed on the hot plate one half hour after the oxotremorine administration and the time for the appearance of nociceptive refluxes consistituted by simultaneous licking of the front paws was noted. The maximum time of staying on the hot plate was fixed at 45 seconds and the percentage of animals with a reaction time (RT) less than 40 seconds in spite of oxotremorine administration was determined.
# [2] = system: trembling and peripherical cholinergic manifestations provoked by tremorine; test: Antitremorine activity as a function of time (Table I); settings: for antitremorine activity (in words): s.c. sesame oil, mice, Table I
# Method: The antagonism of the test compounds to the trembling and peripherical cholinergic manifestations provoked by tremorine [Everett et al, Science, Vol. 124 (1956), p. 79] was studied on mice.
# The products of Examples 2 and 3 were administered subcutaneously in sesame oil solution at doses of 200 and 400 mg/kg at a volume of 25 ml/kg to groups of 10 mice. The mice receied intraperitoneal injections of 20 mg/kg of tremorine either for 4 hours, one day, 2, 3 or 4 days after injection of the test product. […] The reactions (T-trembling; S-salivation; L-lacrymation) were noted 10, 20, 30 and 60 minutes after the tremorine injection and the percent of inhibition of the different reactions at the height of the effect after injection of tremorine were noted as a function of time.
# [3] = system: trembling and peripherial cholinergic manifestations provoked by oxotremorine; test: Antioxotremorine activity: antagonism to the trembling and peripherial cholinergic manifestations (Table II)
# Method: The antagonism of the test products to the trembling and peripherial cholinergic manifestations provoked by oxotremorine [Cho et al, J. Biochem. Biophys. Res. Commun., Vol. 5, (196l) p. 276] was studied on mice. The product of Example 1 was administered subcutaneously in aqueous solution at doses of 50 and 100 mg/kg to groups of 10 mice and the products of Example 2 were subcutaneously administered in sesame oil solution at doses of 200 and 400 mg/kg to groups of 10 mice. Control animals received no vehicle. The mice then received a single intraperitoneal dose of 0.5 mg/kg of oxotremorine either 4 hours, 1 day, 2, 3, 4 or 7 days after the injection of the test product. The reaction of the animals as in Table I were recorded 5,10 and 15 minutes after the injection of oxotremorine and the percent of inhibition of the different reactions, at the height of the effect, after the oxotremorine injection was determined as a function of time.
# [4] = 200 mg/kg s.c. sesame oil, after 4 h
# [5] = 200 mg/kg s.c. sesame oil, after 1 d
# [6] = 200 mg/kg s.c. sesame oil, after 2 d
# [7] = 200 mg/kg s.c. sesame oil, after 3 d
# [8] = 200 mg/kg s.c. sesame oil, after 4 d
# [9] = 200 mg/kg s.c. sesame oil, after 7 d
# [10] = 400 mg/kg s.c. sesame oil, after 4 h
# [11] = 400 mg/kg s.c. sesame oil, after 1 d
# [12] = 400 mg/kg s.c. sesame oil, after 2 d
# [13] = 400 mg/kg s.c. sesame oil, after 3 d
# [14] = 400 mg/kg s.c. sesame oil, after 4 d
# [15] = 400 mg/kg s.c. sesame oil, after 7 d
smiles,measurement,setting,value
"CCCCCCCCCC(=O)OCCN1C2CCC1CC(=C1c3ccccc3CSc3ccccc31)C2 (racemic) [Example 4, dl N-(β-decanoyloxyethyl)-11-(3'-nortropylidene)-6,11-dihydrodibenzo(b,e)thiepine]",% of animals with a RT less than 40 seconds,[1]; [4],100%
same,% of animals with a RT less than 40 seconds,[1]; [5],30%
same,% of animals with a RT less than 40 seconds,[1]; [6],30%
same,% of animals with a RT less than 40 seconds,[1]; [7],10%
same,% of animals with a RT less than 40 seconds,[1]; [8],0%
same,% of animals with a RT less than 40 seconds,[1]; [9],20%
same,% of animals with a RT less than 40 seconds,[1]; [10],100%
same,% of animals with a RT less than 40 seconds,[1]; [11],60%
same,% of animals with a RT less than 40 seconds,[1]; [12],30%
same,% of animals with a RT less than 40 seconds,[1]; [13],30%
same,% of animals with a RT less than 40 seconds,[1]; [14],0%
same,% of animals with a RT less than 40 seconds,[1]; [15],30%
"O=C1CCCN1CC#CCN1CCCC1 [Oxotremorine, oxotremorine, reference compound]",% of animals with a RT less than 40 seconds,"[1]; oxotremorine controls, 0.5 mg/kg i.p., 4 h",10%
same,% of animals with a RT less than 40 seconds,"[1]; oxotremorine controls, 0.5 mg/kg i.p., 1 d",10%
same,% of animals with a RT less than 40 seconds,"[1]; oxotremorine controls, 0.5 mg/kg i.p., 2 d",10%
same,% of animals with a RT less than 40 seconds,"[1]; oxotremorine controls, 0.5 mg/kg i.p., 3 d",10%
same,% of animals with a RT less than 40 seconds,"[1]; oxotremorine controls, 0.5 mg/kg i.p., 4 d",0%
same,% of animals with a RT less than 40 seconds,"[1]; oxotremorine controls, 0.5 mg/kg i.p., 7 d",0%
"CCCCCCCCCCCCCCCC(=O)OCCN1C2CCC1CC(=C1c3ccccc3CSc3ccccc31)C2 (racemic) [Example 5, dl N-(β-palmitoyloxyethyl)-11-(3'-nortropylidene)-6,11-dihydrodibenzo(b,e)thiepine]",% of animals with a RT less than 40 seconds,[1]; [4],20%
same,% of animals with a RT less than 40 seconds,[1]; [5],30%
same,% of animals with a RT less than 40 seconds,[1]; [6],40%
same,% of animals with a RT less than 40 seconds,[1]; [7],10%
same,% of animals with a RT less than 40 seconds,[1]; [8],30%
same,% of animals with a RT less than 40 seconds,[1]; [9],30%
same,% of animals with a RT less than 40 seconds,[1]; [10],70%
same,% of animals with a RT less than 40 seconds,[1]; [11],60%
same,% of animals with a RT less than 40 seconds,[1]; [12],30%
same,% of animals with a RT less than 40 seconds,[1]; [13],20%
same,% of animals with a RT less than 40 seconds,[1]; [14],20%
same,% of animals with a RT less than 40 seconds,[1]; [15],30%
"CCCCCCC(=O)OCCN1C2CCC1CC(=C1c3ccccc3CSc3ccccc31)C2 (racemic) [Example 3, dl N-(β-heptanoyloxyethyl)-11-(3'-nortropylidene)-6,11-dihydrodibenzo(b,e)thiepine]",% inhibition of reactions: L (lacrymation),[2]; [4],90%
same,% inhibition of reactions: S (salivation),[2]; [4],30%
same,% inhibition of reactions: T (trembling),[2]; [4],40%
same,% inhibition of reactions: L (lacrymation),[2]; [5],30%
same,% inhibition of reactions: S (salivation),[2]; [5],20%
same,% inhibition of reactions: T (trembling),[2]; [5],0%
same,% inhibition of reactions: L (lacrymation),[2]; [6],100%
same,% inhibition of reactions: S (salivation),[2]; [6],10%
same,% inhibition of reactions: T (trembling),[2]; [6],100%
same,% inhibition of reactions: L (lacrymation),[2]; [7],20%
same,% inhibition of reactions: S (salivation),[2]; [7],0%
same,% inhibition of reactions: L (lacrymation),[2]; [8],0%
same,% inhibition of reactions: S (salivation),[2]; [8],10%
same,% inhibition of reactions: T (trembling),[2]; [8],20%
same,antitremorine activity (in words),[2],prolonged antitremorine activity
same,% of animals with a RT less than 40 seconds,[1]; [4],50%
same,% of animals with a RT less than 40 seconds,[1]; [5],60%
same,% of animals with a RT less than 40 seconds,[1]; [6],50%
same,% of animals with a RT less than 40 seconds,[1]; [7],50%
same,% of animals with a RT less than 40 seconds,[1]; [8],40%
same,% of animals with a RT less than 40 seconds,[1]; [9],40%
same,% of animals with a RT less than 40 seconds,[1]; [10],70%
same,% of animals with a RT less than 40 seconds,[1]; [11],40%
same,% of animals with a RT less than 40 seconds,[1]; [12],50%
same,% of animals with a RT less than 40 seconds,[1]; [13],30%
same,% of animals with a RT less than 40 seconds,[1]; [14],40%
same,% of animals with a RT less than 40 seconds,[1]; [15],20%
"CCC(=O)OCCN1C2CCC1CC(=C1c3ccccc3CSc3ccccc31)C2 (racemic) [Example 2, dl N-(β-propionyloxyethyl)-11-(3'-nortropylidene)-6,11-dihydrodibenzo(b,e)thiepine]",% inhibition of reactions: L (lacrymation),[3]; [4],100%
same,% inhibition of reactions: S (salivation),[3]; [4],80%
same,% inhibition of reactions: T (trembling),[3]; [4],80%
same,% inhibition of reactions: L (lacrymation),[3]; [5],100%
same,% inhibition of reactions: S (salivation),[3]; [5],90%
same,% inhibition of reactions: T (trembling),[3]; [5],100%
same,% inhibition of reactions: L (lacrymation),[3]; [6],70%
same,% inhibition of reactions: S (salivation),[3]; [6],30%
same,% inhibition of reactions: T (trembling),[3]; [6],30%
same,% inhibition of reactions: L (lacrymation),[3]; [7],30%
same,% inhibition of reactions: S (salivation),[3]; [7],10%
same,% inhibition of reactions: T (trembling),[3]; [7],0%
same,% inhibition of reactions: L (lacrymation),[3]; [8],11%
same,% inhibition of reactions: S (salivation),[3]; [8],0%
same,% inhibition of reactions: L (lacrymation),[3]; [9],10%
same,% inhibition of reactions: S (salivation),[3]; [9],0%
same,% inhibition of reactions: T (trembling),[3]; [9],0%
same,% inhibition of reactions: L (lacrymation),[3]; [10],100%
same,% inhibition of reactions: S (salivation),[3]; [10],100%
same,% inhibition of reactions: T (trembling),[3]; [10],100%
same,% inhibition of reactions: L (lacrymation),[3]; [11],100%
same,% inhibition of reactions: S (salivation),[3]; [11],100%
same,% inhibition of reactions: T (trembling),[3]; [11],100%
same,% inhibition of reactions: L (lacrymation),[3]; [12],80%
same,% inhibition of reactions: S (salivation),[3]; [12],60%
same,% inhibition of reactions: T (trembling),[3]; [12],70%
same,% inhibition of reactions: L (lacrymation),[3]; [13],10%
same,% inhibition of reactions: S (salivation),[3]; [13],20%
same,% inhibition of reactions: T (trembling),[3]; [13],0%
same,% inhibition of reactions: L (lacrymation),[3]; [14],67%
same,% inhibition of reactions: S (salivation),[3]; [14],20%
same,% inhibition of reactions: T (trembling),[3]; [14],20%
same,% inhibition of reactions: L (lacrymation),[3]; [15],20%
same,% inhibition of reactions: S (salivation),[3]; [15],20%
same,% inhibition of reactions: T (trembling),[3]; [15],10%
same,antioxotremorine activity (in words),"[3]; s.c. sesame oil, mice, Table II",prolonged antioxotremorine activity
same,% inhibition of reactions: L (lacrymation),[2]; [4],100%
same,% inhibition of reactions: S (salivation),[2]; [4],90%
same,% inhibition of reactions: T (trembling),[2]; [4],100%
same,% inhibition of reactions: L (lacrymation),[2]; [5],100%
same,% inhibition of reactions: S (salivation),[2]; [5],90%
same,% inhibition of reactions: T (trembling),[2]; [5],90%
same,% inhibition of reactions: L (lacrymation),[2]; [6],40%
same,% inhibition of reactions: S (salivation),[2]; [6],0%
same,% inhibition of reactions: T (trembling),[2]; [6],0%
same,% inhibition of reactions: L (lacrymation),[2]; [7],100%
same,% inhibition of reactions: S (salivation),[2]; [7],50%
same,% inhibition of reactions: T (trembling),[2]; [7],20%
same,% inhibition of reactions: L (lacrymation),[2]; [8],60%
same,% inhibition of reactions: S (salivation),[2]; [8],0%
same,% inhibition of reactions: T (trembling),[2]; [8],0%
same,% inhibition of reactions: L (lacrymation),[2]; [10],100%
same,% inhibition of reactions: S (salivation),[2]; [10],100%
same,% inhibition of reactions: T (trembling),[2]; [10],100%
same,% inhibition of reactions: L (lacrymation),[2]; [11],100%
same,% inhibition of reactions: S (salivation),[2]; [11],100%
same,% inhibition of reactions: T (trembling),[2]; [11],100%
same,% inhibition of reactions: L (lacrymation),[2]; [12],100%
same,% inhibition of reactions: S (salivation),[2]; [12],70%
same,% inhibition of reactions: T (trembling),[2]; [12],40%
same,% inhibition of reactions: L (lacrymation),[2]; [13],100%
same,% inhibition of reactions: S (salivation),[2]; [13],20%
same,% inhibition of reactions: T (trembling),[2]; [13],10%
same,% inhibition of reactions: L (lacrymation),[2]; [14],60%
same,% inhibition of reactions: S (salivation),[2]; [14],90%
same,% inhibition of reactions: T (trembling),[2]; [14],50%
same,antitremorine activity (in words),[2],prolonged antitremorine activity
same,% of animals with a RT less than 40 seconds,[1]; [4],100%
same,% of animals with a RT less than 40 seconds,[1]; [5],100%
same,% of animals with a RT less than 40 seconds,[1]; [6],90%
same,% of animals with a RT less than 40 seconds,[1]; [7],50%
same,% of animals with a RT less than 40 seconds,[1]; [8],60%
same,% of animals with a RT less than 40 seconds,[1]; [9],30%
same,% of animals with a RT less than 40 seconds,[1]; [10],100%
same,% of animals with a RT less than 40 seconds,[1]; [11],100%
same,% of animals with a RT less than 40 seconds,[1]; [12],100%
same,% of animals with a RT less than 40 seconds,[1]; [13],80%
same,% of animals with a RT less than 40 seconds,[1]; [14],90%
same,% of animals with a RT less than 40 seconds,[1]; [15],20%
